No end group written: not given here.
Columns and labels:
dermal fibroblasts = conditions: Verdoorn et al. 1986; cited from earlier work
[1] = test system: proliferative vitreoretinopathy rabbit model; conditions: cited from earlier work
[2] = test system: rabbit dermal fibroblasts; experiment: Fibroblast-mediated collagen gel contraction (shrinkage) assay; format: cell-based; conditions: for % Contraction: 200 ug type IV collagen peptide, no peptide 36%; for % Contraction / Contraction: cells preincubated 1 hr, gel surface area by planimetry at day 7; for Effect on fibroblast-mediated collagen gel contraction: gels cast with and without fibronectin; for Contraction: 200 ug laminin peptide, no peptide 67%
Text: As indicated above, proliferative vitreoretinopathy is the result of the proliferation and migration of fibroblasts, retinal pigment epithelial cells, and glial cells, and their organization into vitreous strands and epiretinal membranes. The vitreous strands and epiretinal membranes can contract, resulting in traction retinal detachment. The ability of rabbit dermal fibroblasts to cause contraction was examined in the collagen gel shrinkage model, which serves as an in vitro model of proliferative vitreoretinopathy (see Verdoon et al., Arch. Ophthalmol., 104, 1216-1219 (1986)). The ability of synthetic polypeptides derived from ECM molecules to inhibit contraction in the collagen gel shrinkage model using rabbit fibroblasts was also examined.
Fifty thousand rabbit dermal fibroblasts were suspended in 250 μl of fibroblast assay medium and mixed with 250 μl of Vitrogen and dispensed into the wells of a 48-well plate. The cells were preincubated with the desired polypeptide concentration (25, 50, 100, or 200 ug/ml) for one hour at 37° C. before mixing with the Vitrogen. Gelling occurred within 20 minutes after transfer of the mix of cell suspension and Vitrogen into an incubator at 37° C. with 5% CO2. The gels were overlaid with 250 μl of growth medium. All conditions were tested in duplicate wells. After 24 hours, the gels were detached from the sides of the wells by sweeping with a 27-gauge needle inserted at the interface between the plastic well and the gel (FIGS. 6-8).
Contraction of collagen gels was quantitated by use of planimetry. The gels were observed daily over the seven day period following detachment for evidence of contraction. The plates were photographed at the end of the seven days to record the amount of contraction. The contraction was measured by recording the area of each gel in each well off the photograph using a computer scanner. The area of the gels with polypeptide was compared to the area of the gels without the polypeptide. Planimetry is a two-dimensional measurement. […] The planimetry measurements accordingly underestimate the degree of contraction that actually occurred.
The collagen gels were cast with or without the incorporation of 25 ug/ml of fibronectin. […] These controls using deactivated cells indicate that cell growth and proliferation are required to effect gel shrinkage.

[3] = 3H-heparin; cited from earlier work

Row | Compound | Heparin binding [3] | Effect on fibroblast-mediated collagen gel contraction [2] | further results
1 | CC(=O)O[C@H]1C(=O)[C@@]2(C)[C@H]([C@H](OC(=O)c3ccccc3)[C@]3(O)C[C@H](OC(=O)[C@H](O)[C@@H](NC(=O)c4ccccc4)c4ccccc4)C(C)=C1C3(C)C)[C@]1(OC(C)=O)CO[C@@H]1C[C@@H]2O [taxol] |  |  | Inhibition of cell proliferation (dermal fibroblasts): most effective; Traction retinal detachment induced by injected chorioretinal fibroblasts ([1]; 0.5 μg intravitreal injection): reduces traction retinal detachment
2 | CC1(C)O[C@@H]2C[C@H]3[C@@H]4CCC5=CC(=O)C=C[C@]5(C)[C@@]4(F)[C@@H](O)C[C@]3(C)[C@]2(C(=O)CO)O1 [triamcinolone acetonide] |  |  | Incidence of retinal detachment ([1]; eyes injected with triamcinolone acetonide, reduced from 93%): 75%
3 | GEFYFDLRLKGDK [Hep-III, GEFYFDLRLKGDK] | reported to bind heparin |  | % Contraction [2]: 33%
4 | GVKGDKGNPGWPGAP [IV-H1, GVKGDKGNPGWPGAP] |  | frequently found to promote contraction | % Contraction [2]: 72%
5 | KEGYKVRLDLNITLEFRTTSK [R38] | bind | frequently found to promote contraction | Contraction [2]: 74%
6 | KNLEISRSTFDLLRNSYGVRK [R26] | do not bind | Inhibition of gel contraction was also observed | Contraction [2]: 45%
7 | KNNQKSEPLIGRKKT [FN-C/H-IIa] | known to bind |  | 
8 | SPPRRARVT [FN-C/H-IV, Ser-Pro-Pro-Arg-Arg-Ala-Arg-Val-Thr] | known to bind | Inhibition of gel contraction was also observed | 
9 | TAGSCLRKFSTM [Hep-I, TAGSCLRKFSTM] | reported to bind heparin |  | % Contraction [2]: 33%
10 | TSLRKALLHAPTGSYSDGQ [R35, TSLRKALLHAPTGSYSDGQ] | do not bind |  | Contraction [2]: 63%
11 | WQPPRARI [FN-C/H-V] | known to bind |  | 
12 | YEKPGSPPREVVPRPRPGV [FN-C/H-I] | known to bind |  | 
13 | YRVRVTPKEKTGPMKE [FN-C/H-III] | known to bind |  | 

Reference: US6013628A, “Method for treating conditions of the eye using polypeptides” (Regents of the University of Minnesota, priority 1995, dated 2000)
